Experimental data: ChEMBL document CHEMBL3045792, “Synthesis, antimicrobial activity, and molecular modeling of novel 4-(3-(4-benzylpiperazin-1-yl)propoxy)-7-methoxy-3-substituted phenyl-2H-chromen-2-one” (2013)
Active and inactive are the calls of the source. The calls are words filed in the database; no cut-off is given here.

How the values were obtained:
Format in all cases: functional
[1] = test system: Colletotrichum falcatum; assay: Antifungal activity against Glomerella tucumanensis assessed as growth inhibition at 1200 ug/ml; settings: read-out: IZ
[2] = test system: Priestia megaterium; assay: Antibacterial activity against Bacillus megaterium assessed as growth inhibition at 600 ug/ml by NCCLS […] method; settings: read-out: IZ
[3] = test system: Colletotrichum falcatum; assay: Antifungal activity against Glomerella tucumanensis assessed as growth inhibition at 600 ug/ml; settings: read-out: IZ
[4] = test system: Fusarium oxysporum; assay: Antifungal activity against Fusarium oxysporum assessed as growth inhibition at 300 ug/ml; settings: read-out: IZ
[5] = test system: Exserohilum rostratum; assay: Antifungal activity against Setosphaeria rostrata assessed as growth inhibition at 900 ug/ml; settings: read-out: IZ
[6] = test system: Staphylococcus aureus; assay: Antibacterial activity against Staphylococcus aureus assessed as growth inhibition at 900 ug/ml by NCCLS […] method; settings: read-out: IZ
[7] = test system: Staphylococcus aureus; assay: Antibacterial activity against Staphylococcus aureus assessed as growth inhibition at 600 ug/ml by NCCLS […] method; settings: read-out: IZ
[8] = test system: Proteus mirabilis; assay: Antibacterial activity against Proteus mirabilis assessed as growth inhibition at 600 ug/ml by NCCLS […] method; settings: read-out: IZ
[9] = test system: Fusarium oxysporum; assay: Antifungal activity against Fusarium oxysporum assessed as growth inhibition at 600 ug/ml; settings: read-out: IZ
[10] = test system: Fusarium oxysporum; assay: Antifungal activity against Fusarium oxysporum assessed as growth inhibition at 900 ug/ml; settings: read-out: IZ
[11] = test system: Bacillus subtilis; assay: Antibacterial activity against Bacillus subtilis assessed as growth inhibition at 600 ug/ml by NCCLS […] method; settings: read-out: IZ
[12] = test system: Escherichia coli; assay: Antibacterial activity against Escherichia coli assessed as growth inhibition at 900 ug/ml by NCCLS […] method; settings: read-out: IZ
[13] = test system: Streptococcus pyogenes; assay: Antibacterial activity against Streptococcus pyogenes assessed as growth inhibition at 900 ug/ml by NCCLS […] method; settings: read-out: IZ
[14] = test system: Exserohilum rostratum; assay: Antifungal activity against Setosphaeria rostrata assessed as growth inhibition at 1200 ug/ml; settings: read-out: IZ
[15] = test system: Candida albicans; assay: Antifungal activity against Candida albicans assessed as growth inhibition at 300 ug/ml
[16] = test system: Candida albicans; assay: Antifungal activity against Candida albicans assessed as growth inhibition at 1200 ug/ml
[17] = test system: Candida albicans; assay: Antifungal activity against Candida albicans assessed as growth inhibition at 600 ug/ml
[18] = test system: Colletotrichum falcatum; assay: Antifungal activity against Glomerella tucumanensis assessed as growth inhibition at 900 ug/ml; settings: read-out: IZ
[19] = test system: Bacillus pumilus; assay: Antibacterial activity against Bacillus pumilus assessed as growth inhibition at 600 ug/ml by NCCLS […] method; settings: read-out: IZ
[20] = test system: Bacillus subtilis; assay: Antibacterial activity against Bacillus subtilis assessed as growth inhibition at 900 ug/ml by NCCLS […] method; settings: read-out: IZ
[21] = test system: Proteus mirabilis; assay: Antibacterial activity against Proteus mirabilis assessed as growth inhibition at 900 ug/ml by NCCLS […] method; settings: read-out: IZ
[22] = test system: Proteus vulgaris; assay: Antibacterial activity against Proteus vulgaris assessed as growth inhibition at 900 ug/ml by NCCLS […] method; settings: read-out: IZ
[23] = test system: Exserohilum rostratum; assay: Antifungal activity against Setosphaeria rostrata assessed as growth inhibition at 300 ug/ml; settings: read-out: IZ
[24] = test system: Fusarium oxysporum; assay: Antifungal activity against Fusarium oxysporum assessed as growth inhibition at 1200 ug/ml; settings: read-out: IZ
[25] = test system: Klebsiella pneumoniae; assay: Antibacterial activity against Klebsiella pneumoniae assessed as growth inhibition at 900 ug/ml by NCCLS […] method; settings: read-out: IZ
[26] = test system: Klebsiella aerogenes; assay: Antibacterial activity against Enterobacter aerogenes assessed as growth inhibition at 900 ug/ml by NCCLS […] method; settings: read-out: IZ
[27] = test system: Proteus vulgaris; assay: Antibacterial activity against Proteus vulgaris assessed as growth inhibition at 600 ug/ml by NCCLS […] method; settings: read-out: IZ
[28] = test system: Klebsiella aerogenes; assay: Antibacterial activity against Enterobacter aerogenes assessed as growth inhibition at 600 ug/ml by NCCLS […] method; settings: read-out: IZ
[29] = test system: Exserohilum rostratum; assay: Antifungal activity against Setosphaeria rostrata assessed as growth inhibition at 600 ug/ml; settings: read-out: IZ
[30] = test system: Klebsiella pneumoniae; assay: Antibacterial activity against Klebsiella pneumoniae assessed as growth inhibition at 600 ug/ml by NCCLS […] method; settings: read-out: IZ
[31] = test system: Bacillus pumilus; assay: Antibacterial activity against Bacillus pumilus assessed as growth inhibition at 900 ug/ml by NCCLS […] method; settings: read-out: IZ
[32] = test system: Streptococcus pyogenes; assay: Antibacterial activity against Streptococcus pyogenes assessed as growth inhibition at 600 ug/ml by NCCLS […] method; settings: read-out: IZ
[33] = test system: Priestia megaterium; assay: Antibacterial activity against Bacillus megaterium assessed as growth inhibition at 900 ug/ml by NCCLS […] method; settings: read-out: IZ
[34] = test system: Candida albicans; assay: Antifungal activity against Candida albicans assessed as growth inhibition at 900 ug/ml
[35] = test system: Colletotrichum falcatum; assay: Antifungal activity against Glomerella tucumanensis assessed as growth inhibition at 300 ug/ml; settings: read-out: IZ
[36] = test system: Escherichia coli; assay: Antibacterial activity against Escherichia coli assessed as growth inhibition at 600 ug/ml by NCCLS […] method; settings: read-out: IZ

SMILES	zone of inhibition at 1200 µg/mL [1] [mm]	zone of inhibition at 600 µg/mL [2] [mm]	zone of inhibition at 600 µg/mL [3] [mm]	zone of inhibition at 300 µg/mL [4] [mm]	zone of inhibition at 900 µg/mL [5] [mm]	zone of inhibition at 900 µg/mL [6] [mm]	zone of inhibition at 600 µg/mL [7] [mm]	zone of inhibition at 600 µg/mL [8] [mm]	zone of inhibition at 600 µg/mL [9] [mm]	zone of inhibition at 900 µg/mL [10] [mm]	zone of inhibition at 600 µg/mL [11] [mm]	zone of inhibition at 900 µg/mL [12] [mm]	zone of inhibition at 900 µg/mL [13] [mm]	zone of inhibition at 1200 µg/mL [14] [mm]	zone of inhibition at 900 µg/mL [18] [mm]	zone of inhibition at 600 µg/mL [19] [mm]	zone of inhibition at 900 µg/mL [20] [mm]	zone of inhibition at 900 µg/mL [21] [mm]	zone of inhibition at 900 µg/mL [22] [mm]	zone of inhibition at 300 µg/mL [23] [mm]	further results
COc1ccc2c(OCCCN3CCN(Cc4ccc[nH]4)CC3)c(-c3ccccc3)c(=O)oc2c1	19.6	6.32	5.84	5.34	13.9	25.3	14.8	10.9	10.2	20	4.21	6.04	18	25.3	10.1	7.49	7.87	19.4	16	3.54	zone of inhibition at 300 µg/mL ([15]; read-out: IZ): 4.02 mm; zone of inhibition at 1200 µg/mL ([16]; read-out: IZ): 27 mm; zone of inhibition at 600 µg/mL ([17]; read-out: IZ): 7.77 mm; zone of inhibition at 1200 µg/mL [24]: 31.6 mm; zone of inhibition at 900 µg/mL [25]: 8.12 mm; zone of inhibition at 900 µg/mL [26]: 8.9 mm; zone of inhibition at 600 µg/mL [27]: 8.12 mm; zone of inhibition at 600 µg/mL [28]: 4.78 mm; zone of inhibition at 600 µg/mL [29]: 7.01 mm; zone of inhibition at 600 µg/mL [30]: 4.21 mm; zone of inhibition at 900 µg/mL [31]: 15.5 mm; zone of inhibition at 600 µg/mL [32]: 9.1 mm; zone of inhibition at 900 µg/mL [33]: 12.4 mm; zone of inhibition at 900 µg/mL ([34]; read-out: IZ): 13.9 mm; zone of inhibition at 300 µg/mL [35]: 3.02 mm; zone of inhibition at 600 µg/mL [36]: 3.22 mm
CCCOc1ccc(CN2CCN(CCCOc3c(-c4ccccc4)c(=O)oc4cc(OC)ccc34)CC2)cc1	32.5	4.2	7.6	2.48	14.6	3.25	1.55	1.02	4.92	12.1	2.5	3.49	6.84	28.6	16.8	3.2	4.25	2.48	8.09	3.25	growth inhibition (GI) [15]: inactive; growth inhibition (GI) [16]: inactive; growth inhibition (GI) [17]: inactive; zone of inhibition at 1200 µg/mL [24]: 19.8 mm; zone of inhibition at 900 µg/mL [25]: 4.25 mm; zone of inhibition at 900 µg/mL [26]: 4.02 mm; zone of inhibition at 600 µg/mL [27]: 4.2 mm; zone of inhibition at 600 µg/mL [28]: 2 mm; zone of inhibition at 600 µg/mL [29]: 6.02 mm; zone of inhibition at 600 µg/mL [30]: 2.04 mm; zone of inhibition at 900 µg/mL [31]: 6.8 mm; zone of inhibition at 600 µg/mL [32]: 3.25 mm; zone of inhibition at 900 µg/mL [33]: 8.4 mm; growth inhibition (GI) [34]: inactive; zone of inhibition at 300 µg/mL [35]: 4.49 mm; zone of inhibition at 600 µg/mL [36]: 1.25 mm
